Measured values published in US10183015B2, “Heterocyclic compounds and methods of use” (Medivation Technologies LLC, priority 2015, dated 2019).
Where “and” joins values, the source holds several entries; their conditions need not be identical. Identical values can stand only once.

Assays:
Format in all cases: in vivo
NRF2 = test: Short-term Paigen-diet NASH mouse model: hepatic NRF2 gene expression (RT-qPCR); parameters: key to ER and oxidative stress gene expression NRF2: Dct: Ct of gene minus Ct of 18S reference; key to ER and oxidative stress gene expression NRF2: 2DDct: expression relative to vehicle group, normalized to 18S (2^-ΔΔCt); conditions: 21 days
Protocol: To investigate whether Compound #37 prevents the development of pathology associated with NASH and steatosis in an acute exploratory disease model, a study was conducted using a diet-induced acute liver steatosis model in mice. As described below, in this study, C57BL/6J mice were initiated on the Paigen diet and simultaneously treated with Compound #37 (5, 20, and 40 mg/kg/day) or vehicle control (20% HPβCD 10 mL/kg/day) by oral gavage for 21 days.
After acclimation, 8-week old male C57Bl/6J mice (Charles River) weighing about 25 g were randomized in 4 groups according their body weight and treated once daily around noon by oral gavage with vehicle, or Compound #37 at various for 21 days as follows: Group 1: vehicle-20% (2-hydroxypropyl)-β-cyclodextrin (HP-β-CD) (n=10); Group 2: Compound #37, 5 mg/kg ([…]) Group 4: Compound #37, 40 mg/kg (n=10). During the treatment period, body weight and food intake (measured over 24h) were measured 3 times per week and once a week, respectively. During the acclimation, all mice were fed a standard diet (Special Diets Services RM1 (E), product no. 801492) and tap water ad libitum. After the acclimation period, mice were fed until the end of the experiment with a 60% high fat Paigen diet (60 kcal % fat, 1.25% cholesterol, and 0.5% cholate; D11061901, Research Diet) and tap water ad libitum.
(§1) Gene expression analysis. Hepatic expression levels of genes involved in lipid metabolism (FAS, SREBP1, ACC1, SCD1), cholesterol metabolism (HMG-CoAR, LDLR), SREBP proteolysis (SCAP, INSIG1), ER stress (PERK), oxidative stress (NRF2), inflammation (MCP-1), and fibrosis (collagen 1α1) were quantified by RTqPCR. Expression level was normalized to 18S gene expression and relative expression to vehicle group was calculated with the […] method.

Coll1a1 = test: DIN mouse model: hepatic Coll1a1 (collagen 1α1) gene expression; parameters: mean liver collagen α1(I) mRNA: unit not given here; conditions: for Coll1a1 Dct / Coll1a1 2^DDct / Coll1a1 DDct / Coll1a1 (Ct): liver, 20 mg/kg group
Protocol: as §1
(§2) Male C57Bl/6J mice (8 weeks old) were housed in enriched ventilated cages (31×12.5×12.7 cm) throughout the experimental phase. Animals' cages litters were changed at least once a week. Animal were housed 5 per cage on inverted 12-hour light cycle (at 09:00 am lights off), 22±2° C. and 55±10% relative humidity. The acclimation period was 20 days. During the acclimation period, all mice were fed a standard diet (RM1 (E) 801492, SDS) and tap water ad libitum. After the acclimation period, mice were fed with the DIN diet (60% fat, cholesterol enriched) and fructose-enriched tap water ad libitum until the end of the experiment.
(§3) At 6 weeks of diet, mice were 4-hour fasted (09:00 am to 1:00 pm) and blood (150 μl/EDTA) was collected at 01:00 pm by retro-orbital bleeding under isoflurane anesthesia. Mice were then allocated in 2 homogenous groups (n=12/group) according to their plasma levels of ALT (average levels: 685U/L), AST (average levels: 627U/L) and HOMA-IR index (average value: 4.7), into 2 homogenous groups (see values at day 0 in Tables 15A and 15B ALT/AST and Tables 16A and 16B for HOMA-IR). Mice were then treated once daily by oral gavage with vehicle (Group 1) or Compound #37 at 20 mg/kg (Group 2) for 70 days.
(§4) Hepatic expression levels of genes involved in lipid (FAS, SREBP1, ACC1, SCD1), cholesterol metabolism (HMG-CoAR, LDLR), in SREBP proteolysis (SCAP, INSIG1), in ER stress (PERK), oxidative stress (NRF2), and inflammation (MCP-1) were not changed. However, expression of collagen 1α1, involved in liver fibrosis, was reduced by 66% in mice treated with Compound #37 (p<0.05 vs. vehicle).

LDLR = test: DIN mouse model: hepatic LDLR gene expression; parameters: key to LDLR 2^DDct: expression relative to vehicle group, normalized to 18S; conditions: liver, 20 mg/kg group
Protocol: as §1, §2, §3, §4

[1] = individual animals, normalised to 18S, 20 mg/kg
[2] = individual animals, vs vehicle mean, 20 mg/kg

SMILES: CC(C)Cc1cc(-c2nc(-c3ccc(NS(=O)(=O)C(F)(F)F)cc3Cl)cs2)ccn1 [Compound 37, N-(3-chloro-4-(2-(2-isobutylpyridin-4-yl)thiazol-4-yl)phenyl)-1,1,1-trifluoromethanesulfonamide]
- ER and oxidative stress gene expression NRF2: 2DDct (NRF2; 5 mg/kg, group mean, n 10): 0.76
- ER and oxidative stress gene expression NRF2: 18S (NRF2; 5 mg/kg, group mean, n 10): 12.3
- ER and oxidative stress gene expression NRF2: DDct (NRF2; 5 mg/kg, group mean, n 10): 0.57
- ER and oxidative stress gene expression NRF2: Dct (NRF2; 5 mg/kg, group mean, n 10): 11.5
- ER and oxidative stress gene expression NRF2: NRF2 (NRF2; 5 mg/kg, group mean, n 10): 23.8
- ER and oxidative stress gene expression NRF2: 2DDct (NRF2; 5 mg/kg, individual animals): 0.76 and 0.49 and 0.57 and 1.91 and 0.32 and 0.4 and 0.82 and 1.02 and 0.67 and 0.68
- ER and oxidative stress gene expression NRF2: 18S (NRF2; 5 mg/kg, individual animals): 13.46 and 13.11 and 11.61 and 13.35 (2×) and 12.03 and 11.6 and 11.79 and 11.14 and 11.12
- ER and oxidative stress gene expression NRF2: DDct (NRF2; 5 mg/kg, individual animals): 0.4 and 1.02 and 0.81 and −0.93 and 1.66 and 1.32 and 0.29 and −0.03 and 0.58 and 0.56
- ER and oxidative stress gene expression NRF2: Dct (NRF2; 5 mg/kg, individual animals): 11.34 and 11.96 and 11.75 and 10.01 and 12.6 and 12.26 and 11.23 and 10.91 and 11.52 and 11.5
- ER and oxidative stress gene expression NRF2: NRF2 (NRF2; 5 mg/kg, individual animals): 24.8 and 25.07 and 23.36 (2×) and 24.63 and 25.61 and 22.83 and 22.7 and 22.66 and 22.62
- ER and oxidative stress gene expression NRF2: 2DDct (NRF2; 20 mg/kg, group mean, n 6): 1.08
- ER and oxidative stress gene expression NRF2: 18S (NRF2; 20 mg/kg, group mean, n 6): 12.2
- ER and oxidative stress gene expression NRF2: DDct (NRF2; 20 mg/kg, group mean, n 6): 0.03
- ER and oxidative stress gene expression NRF2: Dct (NRF2; 20 mg/kg, group mean, n 6): 11
- ER and oxidative stress gene expression NRF2: NRF2 (NRF2; 20 mg/kg, group mean, n 6): 23.2
- ER and oxidative stress gene expression NRF2: 2DDct (NRF2; 20 mg/kg, individual animals): 0.76 (2×) and 0.91 and 2.23 and 0.65 and 1.13
- ER and oxidative stress gene expression NRF2: 18S (NRF2; 20 mg/kg, individual animals): 12.91 and 12.29 and 12.2 and 13.03 and 11.49 and 11.26
- ER and oxidative stress gene expression NRF2: DDct (NRF2; 20 mg/kg, individual animals): 0.39 and 0.4 and 0.13 and −1.16 and 0.62 and −0.18
- ER and oxidative stress gene expression NRF2: Dct (NRF2; 20 mg/kg, individual animals): 11.33 and 11.34 and 11.07 and 9.78 and 11.56 and 10.76
- ER and oxidative stress gene expression NRF2: NRF2 (NRF2; 20 mg/kg, individual animals): 24.24 and 23.63 and 23.27 and 22.81 and 23.05 and 22.02
- expression of collagen 1α1 reduction (Coll1a1; 20 mg/kg, 70 days, p<0.05 vs. vehicle): 66%
- mean liver collagen α1(I) mRNA (Coll1a1; 20 mg/kg/day, 10 weeks, vehicle 1.45%, p<0.05): 0.49
- Coll1a1 Dct (Coll1a1; [1]): 15 and 14.23 and 17.82 and 16.38 and 15.37 and 15.65 and 15.13 and 16.1 and 16.14 and 17.48 and 12.82
- Coll1a1 2^DDct (Coll1a1; [2]): 0.48 and 0.82 and 0.07 and 0.19 and 0.37 and 0.31 and 0.44 and 0.23 and 0.22 and 0.09 and 2.19
- Coll1a1 DDct (Coll1a1; [2]): 1.05 and 0.28 and 3.87 and 2.43 and 1.42 and 1.7 and 1.18 and 2.15 and 2.19 and 3.53 and −1.13
- Coll1a1 (Ct) (Coll1a1; individual animals, 20 mg/kg): 27.55 and 26.78 and 30.66 and 28.81 and 27.72 and 28.24 and 26.86 and 28.61 and 27.64 and 29.03 and 25.17
- Coll1a1 2^DDct (Coll1a1; mean, n 11): 0.49
- Coll1a1 (Ct) (Coll1a1; mean, n 11): 27.9
- Coll1a1 DDct (Coll1a1; mean, n 11): 1.70
- Coll1a1 Dct (Coll1a1; mean, n 11): 15.6
- LDLR Dct (LDLR; [1]): 12.37 and 11.75 and 14.3 and 12.94 and 13.5 and 12.33 and 12.03 and 12.22 and 12.97 and 13.44 and 11.28
- LDLR 2^DDct (LDLR; [2]): 1.65 and 2.54 and 0.43 and 1.11 and 0.76 and 1.7 and 2.09 and 1.84 and 1.09 and 0.79 and 3.52
- LDLR DDct (LDLR; [2]): −0.73 and −1.35 and 1.2 and −0.16 and 0.4 and −0.77 and −1.07 and −0.88 and −0.13 and 0.34 and −1.82
- LDLR (Ct) (LDLR; individual animals, 20 mg/kg): 24.92 (2×) and 24.3 and 27.14 and 25.37 and 25.85 and 23.76 and 24.73 and 24.47 and 24.99 and 23.63
- LDLR 2^DDct (LDLR; mean, n 11): 1.59
- LDLR (Ct) (LDLR; mean, n 11): 24.9
- LDLR DDct (LDLR; mean, n 11): −0.45
- LDLR Dct (LDLR; mean, n 11): 12.6
